Data on 29 compounds can be found in patent publication US10689383B2, “Optionally fused heterocyclyl-substituted derivatives of pyrimidine useful for the treatment of inflammatory, metabolic, oncologic and autoimmune diseases” (NUEVOLUTION A/S, priority 2014, dated 2020).

This experiment addresses T1, human RORγt (Ligand Binding Domain) (Homo sapiens, UniProt P51449).
T1 construct: purchased Crelux (Planegg, Germany) batch no PC5032-1
T1 sequence (P51449 269-508 limits assumed): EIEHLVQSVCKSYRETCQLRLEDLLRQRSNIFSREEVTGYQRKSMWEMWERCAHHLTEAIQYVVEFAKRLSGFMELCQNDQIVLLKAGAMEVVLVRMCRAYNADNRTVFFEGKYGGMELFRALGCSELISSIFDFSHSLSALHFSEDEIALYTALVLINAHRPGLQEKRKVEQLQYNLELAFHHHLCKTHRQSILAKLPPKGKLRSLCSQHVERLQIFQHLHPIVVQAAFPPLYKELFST
Put plainly: Fluorescence Polarization (FP) Assay. The note with it: Fluorescence Polarization (FP) Assay; values given as upper bounds of activity ranges; read-out: FP activity range. On the procedure:
The activity of the compounds was evaluated using a Fluorescence Polarization (FP) Assay and, in most cases, a Th17 Assay and/or RORγ Reporter assay (also referred to as Gal4 assay). The FP assay is an in vitro assay monitoring binding within the ligand binding pocket. The RORγ and the Th17 assays are both cell-based assays monitoring functional activity of the compound assayed.
The total volume was 25 μl, in a black Perkin Elmer OptiPlate. As negative control, 1 μl DMSO was used. […] The probe is a fluorescently labeled (TAMRA) RORγt ligand identified by Nuevolution with a total molecular weight of 910 g/mole as shown in Graph A in FIG. 1.
With `Cc1nc(N[C@H](CC(C)(C)C)C(N)=O)c(C)c(N2CCCC2c2ccc(C(F)(F)F)cc2)n1` (stereo partly drawn) [Example 15, (2R)-2-[[2,5-dimethyl-6-[2-[4-(trifluoromethyl)phenyl]pyrrolidin-1-yl]pyrimidin-4-yl]amino]-4,4-dimethyl-pentanamide], the IC50 is less than 10 µM.

Consider `CC(C)(C)CCNc1ncnc(N2CCCC2c2ccc(C(F)(F)F)cc2)c1F` (centres unmarked) [Example 21, N-(3,3-dimethylbutyl)-5-fluoro-6-[2-[4-(trifluoromethyl)phenyl]pyrrolidin-1-yl]pyrimidin-4-amine], for which the IC50 is less than 10 µM.

Take `O=C(O)Cc1ccc(CNc2ncnc(N3CCCC3c3ccc(C(F)(F)F)cc3)c2F)cc1` (centres unmarked) [Example 32, 2-[4-[[[5-fluoro-6-[2-[4-(trifluoromethyl)phenyl]pyrrolidin-1-yl]pyrimidin-4-yl]amino]methyl]phenyl]acetic acid]: the IC50 is less than 0.5 µM.

Regarding `CC(C)C[C@@H](Nc1ncnc(N2CC(C)CC2c2ccc(C(F)(F)F)cc2)c1F)C(N)=O` (stereo partly drawn) [Example 34, (2R)-2-[[5-fluoro-6-[4-methyl-2-[4-(trifluoromethyl)phenyl]pyrrolidin-1-yl]pyrimidin-4-yl]amino]-4-methyl-pentanamide], the IC50 is less than 1 µM.

On to `CC1CC(c2ccc(C(F)(F)F)cc2)N(c2ncnc(N[C@H](Cc3ccc(F)cc3)C(N)=O)c2F)C1` (stereo partly drawn) [Example 37, (2R)-2-[[5-fluoro-6-[4-methyl-2-[4-(trifluoromethyl)phenyl]pyrrolidin-1-yl]pyrimidin-4-yl]amino]-3-(4-fluorophenyl)propanamide], for which the IC50 was less than 1 µM.

For `CC(CC1CCOCC1)Nc1ncnc(N2CCCC2c2ccc(C(F)(F)F)cc2)c1F` (centres unmarked) [Example 41, 5-fluoro-N-(1-methyl-2-tetrahydropyran-4-yl-ethyl)-6-[2-[4-(trifluoromethyl)phenyl]pyrrolidin-1-yl]pyrimidin-4-amine], the IC50 was less than 2 µM.

With `O=C(O)c1ccc(CNc2ncnc(N3CCCC3c3ccc(C(F)(F)F)cc3)c2F)cc1` (centres unmarked) [Example 44, 4-[[[5-fluoro-6-[2-[4-(trifluoromethyl)phenyl]pyrrolidin-1-yl]pyrimidin-4-yl]amino]methyl]benzoic acid], the IC50 was less than 10 µM.

On to `CC1(C)NC(=O)N(Cc2ccc(CNc3ncnc(N4CCCC4c4ccc(C(F)(F)F)cc4)c3F)cc2)C1=O` (centres unmarked) [Example 45, 3-[[4-[[[5-fluoro-6-[2-[4-(trifluoromethyl)phenyl]pyrrolidin-1-yl]pyrimidin-4-yl]amino]methyl]phenyl]methyl]-5,5-dimethyl-imidazolidine-2,4-dione], for which the IC50 was less than 10 µM.

Take `NS(=O)(=O)Cc1ccc(CNc2ncnc(N3CCCC3c3ccc(C(F)(F)F)cc3)c2F)cc1` (centres unmarked) [Example 46, [4-[[[5-fluoro-6-[2-[4-(trifluoromethyl)phenyl]pyrrolidin-1-yl]pyrimidin-4-yl]amino]methyl]phenyl]methane-sulfonamide]: the IC50 is less than 1 µM.

In the case of `Fc1c(NCc2ccc(C(F)(F)F)cc2)ncnc1N1CCCC1c1ccc(C(F)(F)F)cc1` (centres unmarked) [Example 48, 5-fluoro-N-[[4-(trifluoromethyl)phenyl]methyl]-6-[2-[4-(trifluoromethyl)phenyl]pyrrolidin-1-yl]pyrimidin-4-amine], the IC50 is less than 2 µM.

On to `CCC(Nc1ncnc(N2CCCC2c2ccc(C(F)(F)F)cc2)c1F)c1ccc2c(c1)OCCCO2` (centres unmarked) [Example 55, N-[1-(3,4-dihydro-2H-1,5-benzodioxepin-7-yl)propyl]-5-fluoro-6-[2-[4-(trifluoromethyl)phenyl]pyrrolidin-1-yl]pyrimidin-4-amine], for which the IC50 is less than 10 µM.

Consider `O=C(c1ccc(CNc2ncnc(N3CCCC3c3ccc(C(F)(F)F)cc3)c2F)cc1)N1CCOCC1` (centres unmarked) [Example 57, [4-[[[5-fluoro-6-[2-[4-(trifluoromethyl)phenyl]pyrrolidin-1-yl]pyrimidin-4-yl]amino]methyl]phenyl]-morpholino-methanone], for which the IC50 was less than 10 µM.

As for `OCC1CCN(c2ccc(CNc3ncnc(N4CCCC4c4ccc(C(F)(F)F)cc4)c3F)cn2)CC1` (centres unmarked) [Example 58, [1-[5-[[[5-fluoro-6-[2-[4-(trifluoromethyl)phenyl]pyrrolidin-1-yl]pyrimidin-4-yl]amino]methyl]-2-pyridyl]-4-piperidyl]methanol], the IC50 was less than 10 µM.

For `Fc1c(NCc2ccc(OCC3CCCO3)cc2)ncnc1N1CCCC1c1ccc(C(F)(F)F)cc1` (centres unmarked) [Example 59, 5-fluoro-N-[[4-(tetrahydrofuran-2-ylmethoxy)phenyl]methyl]-6-[2-[4-(trifluoromethyl)phenyl]pyrrolidin-1-yl]pyrimidin-4-amine], the IC50 was less than 10 µM.

As for `NC(=O)C1CCCN(c2ccc(CNc3ncnc(N4CCCC4c4ccc(C(F)(F)F)cc4)c3F)cc2)C1` (centres unmarked) [Example 61, 1-[4-[[[5-fluoro-6-[2-[4-(trifluoromethyl)phenyl]pyrrolidin-1-yl]pyrimidin-4-yl]amino]methyl]phenyl]piperidine-3-carboxamide], the IC50 is less than 10 µM.

Consider `COC(=O)Cc1ccc(CNc2ncnc(N3CCCC3c3ccc(C(F)(F)F)cc3)c2F)cc1` (centres unmarked) [Example 70, methyl 2-[4-[[[5-fluoro-6-[2-[4-(trifluoromethyl)phenyl]pyrrolidin-1-yl]pyrimidin-4-yl]amino]methyl]phenyl]acetate], for which the IC50 is less than 2 µM.

Consider `CC(=O)N1CCOC([C@@H](CC(C)(C)C)Nc2ncnc(N3CCCC3c3ccc(C(F)(F)F)cc3)c2F)C1` (stereo partly drawn) [Example 71, 1-[2-[(1R)-1-[[5-fluoro-6-[2-[4-(trifluoromethyl)phenyl]pyrrolidin-1-yl]pyrimidin-4-yl]amino]-3,3-dimethyl-butyl]morpholin-4-yl]ethanone], for which the IC50 was less than 10 µM.

Consider `Cn1ccc(CNc2ncnc(N3CCCC3c3ccc(C(F)(F)F)cc3)c2F)c1` (centres unmarked) [Example 105, 5-fluoro-N-[(1-methylpyrrol-3-yl)methyl]-6-[2-[4-(trifluoromethyl)phenyl]pyrrolidin-1-yl]pyrimidin-4-amine], for which the IC50 is less than 10 µM.

For `O=C1CCC(CNc2ncnc(N3CCCC3c3ccc(C(F)(F)F)cc3)c2F)N1` (centres unmarked) [Example 108, 5-[[[5-fluoro-6-[2-[4-(trifluoromethyl)phenyl]pyrrolidin-1-yl]pyrimidin-4-yl]amino]methyl]pyrrolidin-2-one], the IC50 was less than 10 µM.

`O=C(O)c1ccc(CCNc2ncnc(N3CCCC3c3ccc(C(F)(F)F)cc3)c2F)cc1` (centres unmarked) [Example 120, 4-[2-[[5-fluoro-6-[2-[4-(trifluoromethyl)phenyl]pyrrolidin-1-yl]pyrimidin-4-yl]amino]ethyl]benzoic acid]: the IC50 is less than 10 µM.

On to `O=C1Cc2cc(CNc3ncnc(N4CCCC4c4ccc(C(F)(F)F)cc4)c3F)ccc2N1` (centres unmarked) [Example 122, 5-[[[5-fluoro-6-[2-[4-(trifluoromethyl)phenyl]pyrrolidin-1-yl]pyrimidin-4-yl]amino]methyl]indolin-2-one], for which the IC50 was less than 10 µM.

In the case of `O=C1CC(CNc2ncnc(N3CCCC3c3ccc(C(F)(F)F)cc3)c2F)CN1C1CCCC1` (centres unmarked) [Example 130, 1-cyclopentyl-4-[[[5-fluoro-6-[2-[4-(trifluoromethyl)phenyl]pyrrolidin-1-yl]pyrimidin-4-yl]amino]methyl]pyrrolidin-2-one], the IC50 was less than 10 µM.

Consider `Cc1cccc(CNc2ncnc(N3CCCC3c3ccc(C(F)(F)F)cc3)c2F)n1` (centres unmarked) [Example 132, 5-fluoro-N-[(6-methyl-2-pyridyl)methyl]-6-[2-[4-(trifluoromethyl)phenyl]pyrrolidin-1-yl]pyrimidin-4-amine], for which the IC50 is less than 10 µM.

Take `O=C1CC2(CCCN(c3ncnc(N4CCCC4c4ccc(C(F)(F)F)cc4)c3F)C2)CN1` (centres unmarked) [Example 134, 9-[5-fluoro-6-[2-[4-(trifluoromethyl)phenyl]pyrrolidin-1-yl]pyrimidin-4-yl]-3,9-diazaspiro[4.5]decan-2-one]: the IC50 is less than 10 µM.

Take `CN1CC(CN(C)c2ncnc(N3CCCC3c3ccc(C(F)(F)F)cc3)c2F)CC1=O` (centres unmarked) [Example 135, 4-[[[5-fluoro-6-[2-[4-(trifluoromethyl)phenyl]pyrrolidin-1-yl]pyrimidin-4-yl]-methyl-amino]methyl]-1-methyl-pyrrolidin-2-one]: the IC50 is less than 10 µM.

As for `CCc1ccc(CN(C)c2ncnc(N3CCCC3c3ccc(C(F)(F)F)cc3)c2F)nc1` (centres unmarked) [Example 136, N-[(5-ethyl-2-pyridyl)methyl]-5-fluoro-N-methyl-6-[2-[4-(trifluoromethyl)phenyl]pyrrolidin-1-yl]pyrimidin-4-amine], the IC50 is less than 2 µM.

In the case of `O=C1CCCN1c1ccc(CNc2ncnc(N3CCCC3c3ccc(C(F)(F)F)cc3)c2F)cc1` (centres unmarked) [Example 137, 1-[4-[[[5-fluoro-6-[2-[4-(trifluoromethyl)phenyl]pyrrolidin-1-yl]pyrimidin-4-yl]amino]methyl]phenyl]pyrrolidin-2-one], the IC50 is less than 10 µM.

As to `Fc1c(NCc2ccc(-c3nnn[nH]3)cc2)ncnc1N1CCCC1c1ccc(C(F)(F)F)cc1` (centres unmarked) [Example 138, 5-fluoro-N-[[4-(1H-tetrazol-5-yl)phenyl]methyl]-6-[2-[4-(trifluoromethyl)phenyl]pyrrolidin-1-yl]pyrimidin-4-amine], the IC50 was less than 0.5 µM.

Consider `Fc1c(NCc2ccccc2)ncnc1N1CCCC1c1ccc(C(F)(F)F)cc1` (centres unmarked) [Example 139, N-benzyl-5-fluoro-6-[2-[4-(trifluoromethyl)phenyl]pyrrolidin-1-yl]pyrimidin-4-amine], for which the IC50 was less than 2 µM.
